# Assay results published in PubChem BioAssay AID743116 (Broad Institute, 2013).
# The source made the active and inactive calls.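 How the source made its calls: active means compounds whose dose curve reaches a melting temperature rise of about 0.39 degC within the tested concentrations; inconclusive means flat curve with moderate shift, or unreliable curve fit; inactive means the rest.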
# Target: Fibroblast growth factor 22 (Homo sapiens) (UniProt Q9HCT0)
# Experiment: FGF22 binders by thermal shift, dose response, biophysical, SYPRO orange melt, qPCR instrument, dry powder (AID 743116)
# Details: Recombinant FGF22 thermal shift, SYPRO orange fluorescence
# Fibroblast growth factor 22 (Homo sapiens), sequence (Q9HCT0 whole entry, looked up): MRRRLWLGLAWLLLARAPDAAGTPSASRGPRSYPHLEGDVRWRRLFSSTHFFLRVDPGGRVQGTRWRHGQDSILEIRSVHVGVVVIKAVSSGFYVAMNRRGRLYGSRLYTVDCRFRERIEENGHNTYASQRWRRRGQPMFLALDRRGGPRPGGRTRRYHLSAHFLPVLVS
row,AC50,Compound
1,29.5 µM,Nc1cccc(-c2nc3ccc(C(=O)c4ccccc4)cc3[nH]2)c1
2,5.49 µM,O=C(N/N=C/c1c[nH]c2ccccc12)c1cccs1
3,10.1 µM,COc1cc(/C=N/NC(=O)c2cc3ccccc3[nH]2)ccc1O
4,36.6 µM,O=C(Nc1ccc(S(=O)(=O)N2CCCC2)cc1)c1ccccc1
5,9.97 µM,CSc1ccc(/C=N/NC(=O)c2ccc3nc[nH]c3c2)cc1
6,24 µM,CCc1cc(-c2[nH]ncc2-c2ccc3c(c2)OCCO3)c(O)cc1O
7,15.5 µM,O=C(N/N=C/c1c[nH]c2ccccc12)c1cccc(Cl)c1
8,24.3 µM,Nc1ccc(C(=O)N/N=C/c2c[nH]c3ccccc23)cc1
9,> 38 µM (inactive),COC(=O)C[C@H]1CC[C@@H]2[C@@H](COc3ccc(NC(=O)Nc4ccc(C#N)cc4)cc3C(=O)N2C)O1
10,24.7 µM,Cc1cc(NC(=O)Nc2ccc3c(ccn3C)c2)sn1
11,0.318 µM,O=C(N/N=C/c1c[nH]c2ccccc12)c1cccc(O)c1

# Same assay, conditions: Recombinant FGF22 thermal shift, SYPRO orange fluorescence; at 19.5 µM (top of the series)
row,"melting temperature shift, positive = stabilization",Compound
1,inactive,CC(C)c1c(C(=O)N/N=C/c2c[nH]c3ccccc23)nnn1-c1nonc1N
2,inactive,CC(=O)Nc1ccc(NC(=O)Nc2ccccc2)cc1
3,inactive,Cc1[nH]c2ccccc2c1C(=O)NS(=O)(=O)Nc1ccc(Cl)cc1

# Same assay, conditions: Recombinant FGF22 thermal shift, SYPRO orange fluorescence; at 38 µM (top of the series)
row,"melting temperature shift, positive = stabilization",Compound
1,inactive,COC(=O)C1=C(CS(=O)(=O)c2cc(OC)ccc2OC)NC(=O)NC1c1ccc(O)c(OC)c1 (stereo not given)
2,inactive,O=S(=O)(Nc1nnc(C(F)(F)F)s1)c1ccc(Cl)cc1
3,inactive,CCN1C(=O)C(CC(=O)Nc2ccc(F)cc2)N(Cc2ccc3c(c2)OCO3)C1=S (stereo not given)
4,inactive,CCCNC(=O)COC(=O)c1ccccc1C(=O)N(C)C1CCCCC1
5,inactive,CCNC(=O)C[C@@H]1CC[C@H]2[C@H](COc3ccc(NC(=O)Nc4ccc(Cl)cc4)cc3C(=O)N2C)O1
6,inactive,CC(=O)Nc1cccc(C(=O)N/N=C/c2c[nH]c3ccccc23)c1
7,inactive,CC(=O)c1ccc(NC(=O)Nc2cccnc2)cc1
8,inactive,Cc1ccc(S(=O)(=O)N2C[C@H](O)COC[C@H]3O[C@H](CC(=O)NCc4ccc(Cl)c(Cl)c4)CC[C@@H]32)cc1
9,inactive,O=C(Nc1ccc(S(=O)(=O)N2CCOCC2)cc1)c1ccc(F)cc1
10,inactive,COc1ccc(C)cc1NS(=O)(=O)c1ccc(NS(=O)(=O)c2ccc(NC(C)=O)cc2)cc1
11,inactive,CC(=O)Nc1cccc(NC(=O)c2ccc3[nH]c(C)c(C)c3c2)c1
12,inactive,O=C(Nc1nccs1)C1CC(=O)N(c2ccc(F)cc2)C1 (stereo not given)
13,inactive,O=C(N/N=C/c1cccc(Oc2ccccc2)c1)c1cccc(O)c1
14,inactive,O=C(N/N=C/c1c[nH]c2ccccc12)c1ccc(O)c(O)c1
15,inactive,O=S1(=O)N=C(N(Cc2cccs2)c2ccc(O)cc2)c2ccccc21
16,inactive,COC(=O)C[C@H]1CC[C@@H]2[C@@H](COc3ccc(NC(=O)Nc4cccc(C#N)c4)cc3C(=O)N2C)O1
17,inactive,Clc1ccc(Nc2ccc(NCc3ccccc3)nn2)cc1
18,inactive,CCc1cc(-c2n[nH]c(C)c2-c2ccc3c(c2)OCCO3)c(O)cc1O

row,"melting temperature shift, positive = stabilization",Compound
1,inactive,O=C(Nc1cc(Cl)cc(Cl)c1)N[C@@H]1CC[C@@H](CCNS(=O)(=O)c2cccc(F)c2)O[C@H]1CO
2,inactive,Cc1cc(C(=O)N/N=C/c2c[nH]c3ccccc23)cs1
3,inactive,O=C(Nc1ccc(Cl)cc1)N[C@@H]1CC[C@@H](CCNS(=O)(=O)c2ccccc2F)O[C@H]1CO
4,inactive,Cc1ccc(OCCCC(=O)Nc2ccc(S(=O)(=O)N3CCOCC3)cc2)cc1
5,inactive,Cc1[nH]c2ccc(C(=O)OCC(=O)Nc3cccc(S(N)(=O)=O)c3)cc2c1C
6,inactive,O=C(O)Cc1ccc(NC(=O)c2ccc(Cl)c(Cl)c2)cc1
7,inactive,O=C(C[C@H]1CC[C@@H]2[C@H](COC[C@H](O)CN2S(=O)(=O)c2cccc(Cl)c2)O1)Nc1ccccc1
8,inactive,O=C(NCCc1c[nH]c2ccccc12)c1ccc(Cl)cc1
9,inactive,COc1ccc(Nc2nc3ccc(OC)cc3s2)cc1
10,inactive,CCOc1cccc(C(=O)Nc2ccc3[nH]ncc3c2)c1
11,inactive,Cc1ccn(-c2ccc(NC(=O)c3cccs3)cc2)n1
12,inactive,O=C(Nc1cc(Cl)cc(Cl)c1)N[C@@H]1CC[C@@H](CCNS(=O)(=O)c2cccc(F)c2)O[C@@H]1CO
13,inactive,O=C(Nc1ccc(S(=O)(=O)N2CCCC2)cc1)c1cccs1
14,inactive,CCN1C/C(=C/c2cccs2)c2nc3ccccc3c(C(=O)O)c2C1
15,inactive,Cc1ccc(S(=O)(=O)N2C[C@@H](O)COC[C@@H]3O[C@@H](CC(=O)NCc4ccc(Cl)c(Cl)c4)CC[C@H]32)cc1
16,inactive,CN(Cc1c(C(=O)N/N=C/c2ccc(O)cc2)nnn1-c1nonc1N)c1ccccc1
17,inactive,COc1ccc(-c2nc(-c3ccc(O)cc3O)cs2)cc1OC
18,inactive,O=C(N/N=C/c1ccc(C(F)(F)F)cc1)c1ccc(O)cc1
